Measurements taken from patent US4355026A, “4-Demethoxy,11-deoxy anthracycline derivatives” (priority 1980, dated 1982).
Values after ≈ are worked out from the molar mass of the structure shown. Read-outs that look alike come from different tables or passages of the source.

Tests used:
L1210 leukemia cells [1] = experiment: Inhibitory effect on growth of L1210 cultivated leukemic cells of mice; assay type: cell-based; details: Mus musculus, RPMI 1640, 20% calf serum, 37° C.
Procedure: (§1) A. Inhibitory Effect on Growth, DNA Synthesis and RNA Synthesis of L1210 Cultivated Leukemic Cells of Mice
For example, L1210 cells were inoculated in a concentration of 5×10^4 cells/ml in an RPMI 1640 culture medium (Roswell Park Memorial Institute 1640) containing 20% calf serum and, simultaneously, representative compounds of the present invention were added in a concentration of 0.1 and 0.5 μg/ml. The cells were cultivated in a CO2 generator at 37° C. The 50% growth inhibitory concentration with respect to a control group was then determined.

[2] = system: L1210 leukemia cells, RNA synthesis; experiment: Inhibition of RNA synthesis (14C-uridine incorporation) of L1210 cultivated leukemic cells; assay type: cell-based; details: Mus musculus, L1210, 1 h, 14C-uridine, 60 minutes, 37° C.; for IC50: read-out: IC50 RNA synthesis; for IC90: 90% inhibition, read-out: IC90 RNA synthesis
Procedure: as §1
(§2) Separately, the above L1210 cultivated cells were suspended in a concentration of 5×10^5 cells/ml in an RPMI 1640 medium containing 10% calf serum and cultivated for 1 to 2 hours in a CO2 incubator at 37° C. Then, representative test compounds were added in various concentrations, and 15 minutes later, ^14 C-uridine (0.05 μCi/ml) or ^14 C-thymidine (0.05 μCi/ml) were added. The cells were incubated at 37° C. for 60 minutes. A 10% aqueous trichloroacetic acid solution was added to the incubation medium to stop the reaction and simultaneously precipitate acid-insoluble matter. The acid-insoluble matter was washed three times with a 5 to 10% aqueous solution of trichloroacetic acid and then dissolved in formic acid. The radioactivity of the acid-insoluble matter was measured. From the ratio of incorporated radiation to that of a control group, the concentrations which inhibited radiation by 10%, 50% and 90% respectively were measured.

Microccus flavus FDA 16 = experiment: MIC on nutrient agar medium; assay type: cell-based
From the text: (§3) The compounds of formula I provided by the present invention are also characterized by their antimicrobial activity. Table 3 summarizes the minimum inhibitory concentrations (MIC) of representative compounds of the present invention against various microorganisms on a nutrient agar medium.

[3] = system: Bacillus subtilis NRRB- 558; experiment: MIC on nutrient agar medium; assay type: cell-based; details: NRRB558
From the text: as §3

Candida albicans 3147 = experiment: MIC on nutrient agar medium; assay type: cell-based
From the text: as §3

[4] = system: Staphylococcus aureus smith; experiment: MIC on nutrient agar medium; assay type: cell-based
From the text: as §3

[5] = system: Mycobacterium smegmatis ATCC 607; experiment: MIC on nutrient agar medium; assay type: cell-based; details: Mycolicibacterium smegmatis, ATCC607
From the text: as §3

[6] = system: Corynebacterium bovis 1810; experiment: MIC on nutrient agar medium; assay type: cell-based
From the text: as §3

[7] = system: Microccus lysodeikticus IFQ 3333; experiment: MIC on nutrient agar medium; assay type: cell-based
From the text: as §3

[8] = system: Klebsiella pneumonia PCI 602; experiment: MIC on nutrient agar medium; assay type: cell-based; details: Klebsiella pneumoniae, PCI602
From the text: as §3

[9] = system: Bacillus cereus ATCC 10702; experiment: MIC on nutrient agar medium; assay type: cell-based; details: ATCC10702
From the text: as §3

[10] = system: Bacillus subtilis PCI 219; experiment: MIC on nutrient agar medium; assay type: cell-based; details: PCI219
From the text: as §3

Escherichia coli NIHJ = experiment: MIC on nutrient agar medium; assay type: cell-based
From the text: as §3

[11] = system: Staphylococcus aureus FDA 209; experiment: MIC on nutrient agar medium; assay type: cell-based; details: FDA209
From the text: as §3

Salmonella typhi T - 63 = experiment: MIC on nutrient agar medium; assay type: cell-based; details: Salmonella enterica
From the text: as §3

Bacillus megatherium APF = experiment: MIC on nutrient agar medium; assay type: cell-based
From the text: as §3

[12] = system: Pseudomonas aeruginosa A3; experiment: MIC on nutrient agar medium; assay type: cell-based
From the text: as §3

Sarcina lutea PCI 1001 = experiment: MIC on nutrient agar medium; assay type: cell-based; details: Micrococcus luteus, PCI1001
From the text: as §3

[13] = system: Shigella flexneri 46 JS 11811; experiment: MIC on nutrient agar medium; assay type: cell-based; details: 46JS11811
From the text: as §3

[14] = system: L1210 leukemia cells, DNA synthesis; experiment: Inhibition of DNA synthesis (14C-thymidine incorporation) of L1210 cultivated leukemic cells; assay type: cell-based; details: Mus musculus, L1210, 1 h, 14C-thymidine, 60 minutes, 37° C.; for IC50: read-out: IC50 DNA synthesis; for IC90: 90% inhibition, read-out: IC90 DNA synthesis
Procedure: as §1, §2

L1210 leukemia cells [15] = experiment: Antitumor activity on CDFI mouse leukemia induced by mouse L1210 leukemia cells; assay type: in vivo, CDFI mice; set-up: key to Toxicity: *: Toxicity-
Procedure: B. Antitumor Activity on CDFI Mouse Leukemia Induced by Mouse L1210 Leukemia cells
L1210 leukemia cells of mice were intraperitoneally transplanted in an amount of 1×10^5 cells/mouse in CDFI mice. Starting 24 hours after the transplantation, each of the test compounds was intraperitoneally administered to the mice for 10 consecutive days. the survival rate (T/C, %) was calculated in comparison with a control group (to which physiological saline was administered).

[16] = L1210, 24 h, 1 day later, read-out: IC50 growth, 1 day later
[17] = L1210, 48 h, 2 days later, read-out: IC50 growth, 2 days later
[18] = 2.5 mg/kg/day, intraperitoneal, 10 consecutive days

Row | Compound | IC50 (L1210 leukemia cells [1]; [16]) | IC50 (L1210 leukemia cells [1]; [17]) | IC50 [2] | IC90 [2] | MIC (Microccus flavus FDA 16) | MIC [3] | MIC (Candida albicans 3147) | MIC [4] | MIC [5] | MIC [6] | MIC [7] | MIC [8] | MIC [9] | MIC [10] | MIC (Escherichia coli NIHJ) | MIC [11] | MIC (Salmonella typhi T - 63) | MIC (Bacillus megatherium APF) | IC50 [14] | IC90 [14] | other results
1 | C[C@@H]1O[C@@H](O[C@@H]2C[C@@](O)(C(=O)CO)Cc3cc4c(c(O)c32)C(=O)c2ccccc2C4=O)C[C@H](N)[C@@H]1O (single isomer, unassigned; isomer 4) [4-Demethoxy-11-deoxy-adriamycin (7R,9R,1'α)isomer, 4-Demethoxy-11-deoxyadriamycin] | 72.5 µg/mL (≈ 146 µM) | 72.5 µg/mL (≈ 146 µM) | > 10 µg/mL | > 10 µg/mL | > 100 µg/mL | > 100 µg/mL | > 100 µg/mL | > 100 µg/mL | 100 µg/mL (≈ 201 µM) | > 100 µg/mL | > 100 µg/mL | > 100 µg/mL | > 100 µg/mL | > 100 µg/mL | > 100 µg/mL | > 100 µg/mL | > 100 µg/mL | > 100 µg/mL | > 10 µg/mL | > 10 µg/mL | MIC [12]: > 100 µg/mL; MIC (Sarcina lutea PCI 1001): > 100 µg/mL; MIC [13]: > 100 µg/mL
2 | C[C@@H]1O[C@@H](O[C@H]2C[C@](O)(C(=O)CO)Cc3cc4c(c(O)c32)C(=O)c2ccccc2C4=O)C[C@H](N)[C@@H]1O (single isomer, unassigned; isomer 4) [4-Demethoxy-11-deoxy-adriamycin (7S,9S,1'α)isomer, 4-Demethoxy-11-deoxyadriamycin] | 0.07 µg/mL (≈ 0.141 µM) | 0.03 µg/mL (≈ 0.0603 µM) | 0.8 µg/mL (≈ 1.61 µM) | 4.6 µg/mL (≈ 9.25 µM) | 50 µg/mL (≈ 101 µM) | 12.5 µg/mL (≈ 25.1 µM) | > 100 µg/mL | 12.5 µg/mL (≈ 25.1 µM) | 12.5 µg/mL (≈ 25.1 µM) | 100 µg/mL (≈ 201 µM) | 50 µg/mL (≈ 101 µM) | > 100 µg/mL | 25 µg/mL (≈ 50.3 µM) | 12.5 µg/mL (≈ 25.1 µM) | > 100 µg/mL | 100 µg/mL (≈ 201 µM) | > 100 µg/mL | 12.5 µg/mL (≈ 25.1 µM) | 0.64 µg/mL (≈ 1.29 µM) | 5.6 µg/mL (≈ 11.3 µM) | Survival rate (T/C, %) (L1210 leukemia cells [15]; 0.15 mg/kg/day, intraperitoneal, 10 consecutive days): 135%; Survival rate (T/C, %) (L1210 leukemia cells [15]; 0.3 mg/kg/day, intraperitoneal, 10 consecutive days): 162%; Survival rate (T/C, %) (L1210 leukemia cells [15]; 0.6 mg/kg/day, intraperitoneal, 10 consecutive days): 184%; Survival rate (T/C, %) (L1210 leukemia cells [15]; 1.25 mg/kg/day, intraperitoneal, 10 consecutive days): 308%; Survival rate (T/C, %) (L1210 leukemia cells [15]; [18]): 177%; Toxicity (L1210 leukemia cells [15]; [18]): *; antitumor activity on experimental animal tumors (in words) (L1210 leukemia cells [15]; experimental animal tumors): particularly noteworthy; MIC [12]: > 100 µg/mL; MIC (Sarcina lutea PCI 1001): 100 µg/mL (≈ 201 µM); MIC [13]: > 100 µg/mL
3 | CC(=O)[C@@]1(O)Cc2cc3c(c(O)c2[C@H](O[C@H]2C[C@H](N)[C@H](O)[C@H](C)O2)C1)C(=O)c1ccccc1C3=O (single isomer, unassigned; isomer 4) [4-Demethoxy-11-deoxy-daunomycin (7R,9R,1'α)isomer, 4-Demethoxy-11-deoxydaunomycin] | > 2.5 µg/mL | > 2.5 µg/mL | 9 µg/mL (≈ 18.7 µM) | > 10 µg/mL | > 100 µg/mL | 50 µg/mL (≈ 104 µM) | > 100 µg/mL | > 100 µg/mL | 100 µg/mL (≈ 208 µM) | 100 µg/mL (≈ 208 µM) | > 100 µg/mL | > 100 µg/mL | 50 µg/mL (≈ 104 µM) | 100 µg/mL (≈ 208 µM) | > 100 µg/mL | > 100 µg/mL | > 100 µg/mL | 50 µg/mL (≈ 104 µM) | 5.4 µg/mL (≈ 11.2 µM) | 13 µg/mL (≈ 27 µM) | MIC [12]: > 100 µg/mL; MIC (Sarcina lutea PCI 1001): 50 µg/mL (≈ 104 µM); MIC [13]: > 100 µg/mL
4 | CC(=O)[C@@]1(O)Cc2cc3c(c(O)c2[C@H](O[C@@H]2C[C@H](N)[C@H](O)[C@H](C)O2)C1)C(=O)c1ccccc1C3=O (single isomer, unassigned; isomer 4) [4-Demethoxy-11-deoxy-daunomycin (7R,9R,1'β )isomer, 4-Demethoxy-11-deoxydaunomycin] | 2 µg/mL (≈ 4.15 µM) | 1.25 µg/mL (≈ 2.6 µM) | 5 µg/mL (≈ 10.4 µM) | 13 µg/mL (≈ 27 µM) |  |  |  |  |  |  |  |  |  |  |  |  |  |  | 4.5 µg/mL (≈ 9.35 µM) | 15 µg/mL (≈ 31.2 µM) | 
5 | CC(=O)[C@]1(O)Cc2cc3c(c(O)c2[C@@H](O[C@@H]2C[C@H](N)[C@H](O)[C@H](C)O2)C1)C(=O)c1ccccc1C3=O (single isomer, unassigned; isomer 4) [4-Demethoxy-11-deoxy-daunomycin (7S,9S,1'β)isomer, 4-Demethoxy-11-deoxydaunomycin] | 1.4 µg/mL (≈ 2.91 µM) | 0.51 µg/mL (≈ 1.06 µM) | 5.4 µg/mL (≈ 11.2 µM) | 14 µg/mL (≈ 29.1 µM) |  |  |  |  |  |  |  |  |  |  |  |  |  |  | 3.1 µg/mL (≈ 6.44 µM) | 15 µg/mL (≈ 31.2 µM) | 
